Among the data in ChEMBL document CHEMBL4011618, “Discovery of Potent, Selective Stem Cell Factor Receptor/Platelet Derived Growth Factor Receptor Alpha (c-KIT/PDGFRα) Dual Inhibitor for the Treatment of Imatinib-Resistant Gastrointestinal Stromal Tumors (GISTs)” (J Med Chem, 2017) are IC50 and GI50 values, retold here.

In test [1] the target is T1, Mast/stem cell growth factor receptor Kit (Homo sapiens, UniProt P10721).
Description: Inhibition of cKIT (unknown origin) using FAM-labeled peptide as substrate preincubated for 10 mins followed by substrate addition in presence of ATP by mobility shift assay
Test [2] deals with Vascular endothelial growth factor receptor 2 (Homo sapiens, UniProt P35968).
Description: Inhibition of VEGFR2 (unknown origin) using FAM-labeled peptide as substrate preincubated for 10 mins followed by substrate addition in presence of ATP by mobility shift assay
For test [3], the target named is T2, Platelet-derived growth factor receptor alpha (Homo sapiens, UniProt P16234). Briefly: Inhibition of PDGFRalpha (unknown origin) using FAM-labeled peptide as substrate preincubated for 10 mins followed by substrate addition in presence of ATP by mobility shift assay.
The target in test [4] is T1, Mast/stem cell growth factor receptor Kit. This is another data set of the same source.
Description: Inhibition of TEL-fused cKIT (unknown origin) expressed in mouse BAF3 cells assessed as cell growth inhibition after 72 hrs by cell titer-glo assay
For test [5], the system named is Platelet-derived growth factor receptor alpha (Homo sapiens), P16234 [T674I].
Description: Inhibition of TEL-fused PDGFRalpha T674I mutant (unknown origin) expressed in mouse BAF3 cells assessed as cell growth inhibition after 72 hrs by cell titer-glo assay
Test [6] concerns Mast/stem cell growth factor receptor Kit (Homo sapiens), P10721 [T670I].
Description: Inhibition of TEL-fused cKIT T670I mutant (unknown origin) expressed in mouse BAF3 cells assessed as cell growth inhibition after 72 hrs by cell titer-glo assay
The target in test [7] is T2, Platelet-derived growth factor receptor alpha.
Description: Inhibition of TEL-fused PDGFRalpha (unknown origin) expressed in mouse BAF3 cells assessed as cell growth inhibition after 72 hrs by cell titer-glo assay

Sequence of Mast/stem cell growth factor receptor Kit (Homo sapiens), P10721 [T670I] (P10721 whole entry T670I): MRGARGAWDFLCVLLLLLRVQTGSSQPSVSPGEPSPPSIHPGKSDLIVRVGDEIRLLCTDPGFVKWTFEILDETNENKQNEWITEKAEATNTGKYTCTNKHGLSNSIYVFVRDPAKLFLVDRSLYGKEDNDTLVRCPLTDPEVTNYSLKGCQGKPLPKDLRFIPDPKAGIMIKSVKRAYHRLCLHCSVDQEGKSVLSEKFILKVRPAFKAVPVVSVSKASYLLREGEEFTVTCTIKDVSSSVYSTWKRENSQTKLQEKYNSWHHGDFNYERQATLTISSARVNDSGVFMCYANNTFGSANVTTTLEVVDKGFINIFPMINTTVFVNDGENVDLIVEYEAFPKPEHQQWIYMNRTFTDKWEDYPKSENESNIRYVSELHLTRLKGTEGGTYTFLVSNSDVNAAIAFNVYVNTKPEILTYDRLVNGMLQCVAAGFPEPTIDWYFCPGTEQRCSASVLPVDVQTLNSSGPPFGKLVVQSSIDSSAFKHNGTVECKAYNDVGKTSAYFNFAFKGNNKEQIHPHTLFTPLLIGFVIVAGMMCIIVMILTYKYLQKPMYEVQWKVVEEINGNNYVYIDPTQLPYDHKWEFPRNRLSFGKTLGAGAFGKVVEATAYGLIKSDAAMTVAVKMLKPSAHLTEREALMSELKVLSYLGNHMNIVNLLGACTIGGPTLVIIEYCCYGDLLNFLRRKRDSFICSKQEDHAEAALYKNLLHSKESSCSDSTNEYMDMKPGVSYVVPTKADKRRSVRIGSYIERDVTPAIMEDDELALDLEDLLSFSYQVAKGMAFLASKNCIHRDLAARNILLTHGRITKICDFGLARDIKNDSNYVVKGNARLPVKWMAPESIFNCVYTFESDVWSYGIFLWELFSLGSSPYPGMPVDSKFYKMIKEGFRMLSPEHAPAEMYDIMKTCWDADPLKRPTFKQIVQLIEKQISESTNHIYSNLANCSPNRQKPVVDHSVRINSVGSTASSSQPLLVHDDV
T2 sequence (P16234 whole entry): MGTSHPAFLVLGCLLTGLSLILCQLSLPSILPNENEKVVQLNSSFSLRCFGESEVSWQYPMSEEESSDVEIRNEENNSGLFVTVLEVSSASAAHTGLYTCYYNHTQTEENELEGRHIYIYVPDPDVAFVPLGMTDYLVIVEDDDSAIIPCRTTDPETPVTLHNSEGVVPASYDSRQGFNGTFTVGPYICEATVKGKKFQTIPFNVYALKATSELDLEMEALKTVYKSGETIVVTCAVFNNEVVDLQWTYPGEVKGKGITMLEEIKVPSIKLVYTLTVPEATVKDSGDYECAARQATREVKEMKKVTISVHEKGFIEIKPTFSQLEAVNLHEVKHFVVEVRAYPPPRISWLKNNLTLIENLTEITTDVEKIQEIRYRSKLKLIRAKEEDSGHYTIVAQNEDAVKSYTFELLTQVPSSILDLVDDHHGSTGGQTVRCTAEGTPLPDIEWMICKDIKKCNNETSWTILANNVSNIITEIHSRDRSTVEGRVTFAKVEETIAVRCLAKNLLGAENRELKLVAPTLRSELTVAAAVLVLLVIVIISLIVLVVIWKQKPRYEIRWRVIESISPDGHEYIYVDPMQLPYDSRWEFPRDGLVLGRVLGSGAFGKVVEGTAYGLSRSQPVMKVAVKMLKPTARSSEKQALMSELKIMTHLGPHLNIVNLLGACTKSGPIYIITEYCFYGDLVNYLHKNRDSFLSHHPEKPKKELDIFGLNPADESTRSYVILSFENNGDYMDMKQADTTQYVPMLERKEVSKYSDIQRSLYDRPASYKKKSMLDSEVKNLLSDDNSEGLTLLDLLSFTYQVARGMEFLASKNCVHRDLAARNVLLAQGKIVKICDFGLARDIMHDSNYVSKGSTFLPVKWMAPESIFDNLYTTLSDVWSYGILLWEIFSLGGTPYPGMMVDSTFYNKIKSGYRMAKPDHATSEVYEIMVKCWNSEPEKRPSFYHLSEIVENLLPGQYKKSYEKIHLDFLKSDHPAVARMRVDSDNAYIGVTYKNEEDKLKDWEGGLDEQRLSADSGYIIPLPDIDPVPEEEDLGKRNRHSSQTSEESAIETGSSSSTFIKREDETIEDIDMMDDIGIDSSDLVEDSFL
T1 sequence (P10721 whole entry): as the sequence (P10721 whole entry T670I) above, with I670T counted along it
Sequence of Vascular endothelial growth factor receptor 2 (P35968 whole entry): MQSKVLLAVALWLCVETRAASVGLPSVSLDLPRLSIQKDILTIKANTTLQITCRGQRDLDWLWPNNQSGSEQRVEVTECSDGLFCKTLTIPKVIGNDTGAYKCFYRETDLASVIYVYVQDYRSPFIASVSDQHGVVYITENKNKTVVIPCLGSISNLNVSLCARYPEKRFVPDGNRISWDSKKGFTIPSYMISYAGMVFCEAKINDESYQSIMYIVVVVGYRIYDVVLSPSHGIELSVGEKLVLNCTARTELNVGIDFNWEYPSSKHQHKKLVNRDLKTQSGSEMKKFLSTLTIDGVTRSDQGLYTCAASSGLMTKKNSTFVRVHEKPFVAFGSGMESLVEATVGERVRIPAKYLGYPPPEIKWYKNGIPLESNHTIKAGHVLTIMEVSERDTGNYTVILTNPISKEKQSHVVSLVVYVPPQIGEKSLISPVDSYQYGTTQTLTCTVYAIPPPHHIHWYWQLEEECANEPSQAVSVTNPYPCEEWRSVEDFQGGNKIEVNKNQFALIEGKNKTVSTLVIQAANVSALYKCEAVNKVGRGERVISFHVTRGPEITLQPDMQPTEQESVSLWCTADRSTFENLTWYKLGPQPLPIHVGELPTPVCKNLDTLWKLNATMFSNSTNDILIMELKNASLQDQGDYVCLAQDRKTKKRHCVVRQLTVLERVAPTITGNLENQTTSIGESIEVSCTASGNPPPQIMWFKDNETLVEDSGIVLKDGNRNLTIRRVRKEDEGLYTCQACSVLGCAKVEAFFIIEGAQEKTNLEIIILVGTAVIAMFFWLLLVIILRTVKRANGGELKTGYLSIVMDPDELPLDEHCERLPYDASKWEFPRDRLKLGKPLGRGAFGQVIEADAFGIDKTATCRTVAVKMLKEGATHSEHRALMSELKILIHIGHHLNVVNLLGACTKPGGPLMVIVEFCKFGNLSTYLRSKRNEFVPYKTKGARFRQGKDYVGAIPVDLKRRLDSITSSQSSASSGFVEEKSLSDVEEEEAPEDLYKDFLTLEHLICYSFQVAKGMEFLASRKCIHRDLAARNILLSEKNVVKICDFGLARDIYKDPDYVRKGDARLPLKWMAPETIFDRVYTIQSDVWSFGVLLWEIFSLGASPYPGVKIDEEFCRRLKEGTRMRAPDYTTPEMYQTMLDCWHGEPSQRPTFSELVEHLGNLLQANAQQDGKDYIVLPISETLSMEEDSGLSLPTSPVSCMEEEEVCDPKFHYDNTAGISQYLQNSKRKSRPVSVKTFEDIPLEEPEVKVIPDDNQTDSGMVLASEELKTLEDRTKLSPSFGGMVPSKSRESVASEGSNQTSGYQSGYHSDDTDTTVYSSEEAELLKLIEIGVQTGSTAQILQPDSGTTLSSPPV
Sequence of Platelet-derived growth factor receptor alpha (Homo sapiens), P16234 [T674I] (P16234 whole entry T674I): as the sequence (P16234 whole entry) above, with T674I counted along it

Take `Cc1n[nH]c2nccc(-c3ccc(NC(=O)NCc4cccs4)cc3)c12`: the IC50 (as a rule, the point on the concentration scale where inhibition reaches its midpoint) stood at 26 nM in test [1], 1790 nM in test [2] and 157 nM in test [3].
For `Cc1n[nH]c2nccc(-c3ccc(NC(=O)Nc4cccnc4)cc3)c12` the same measures were 14 nM, 3110 nM and 313 nM.
Regarding `Cc1n[nH]c2nccc(-c3ccc(NC(=O)NCCc4ccccc4)cc3)c12`, the IC50 was 3.7 nM in test [1] and 82 nM in test [3].
As for `CCc1cccc(NC(=O)Nc2ccc(-c3ccnc4[nH]nc(C)c34)cc2)c1`, the IC50 is 3.9 nM in test [1], 1210 nM in test [2] and 22 nM in test [3].
On the same counts, the results for `Cc1n[nH]c2nccc(-c3ccc(NC(=O)Nc4ccc5ccccc5c4)cc3)c12` are 20 nM, > 50000 nM and 124 nM.
On the same counts, the results for `CCCCNC(=O)Nc1ccc(-c2ccnc3[nH]nc(C)c23)cc1` are 20600 nM, > 50000 nM and 43900 nM.
For `Cc1n[nH]c2nccc(-c3ccc(NC(=O)NC4CCCC4)cc3)c12`, the GI50 (in general, the concentration that inhibits growth by half) in test [4] was > 10000 nM; in test [5] it was > 10000 nM; in test [6], > 10000 nM; in test [7] it was 13.3 nM. For the same compound, the IC50 in test [1] is 144 nM; in test [2], 6230 nM; in test [3] it was 576 nM.
For `Cc1ccc(F)c(NC(=O)Nc2ccc(-c3cccc4[nH]nc(N)c34)cc2)c1` [LINIFANIB], the GI50 in test [4] is 88.7 nM; in test [5], 104 nM; in test [6], 37.1 nM; in test [7] it was 10.4 nM. In addition, in test [3], the IC50 is 15 nM.
As for `Cc1n[nH]c2nccc(-c3ccc(NC(=O)NC(C)(C)C)cc3)c12`, the results for the IC50 in test [1], in test [2] and in test [3] were 1420 nM, 11400 nM and 1470 nM, respectively.
On the same counts, the results for `Cc1n[nH]c2nccc(-c3ccc(NC(=O)Nc4ccccc4N4CCOCC4)cc3)c12` are 6440 nM, 36900 nM and 4080 nM.
Take `Cc1n[nH]c2nccc(-c3ccc(NC(=O)Nc4ccccn4)cc3)c12`: the IC50 was 20 nM in test [1], > 50000 nM in test [2] and 401 nM in test [3].
`Cc1ccccc1NC(=O)Nc1ccc(-c2ccnc3[nH]nc(C)c23)cc1`: the IC50 is 10900 nM in test [1], 4320 nM in test [2] and 305 nM in test [3].
On the same counts, the results for `Cc1n[nH]c2nccc(-c3ccc(NC(=O)Nc4cccc(N(C)C)c4)cc3)c12` are 2.6 nM, 6920 nM and 83 nM.
Turning to `Cc1cccc(NC(=O)Nc2ccc(-c3ccnc4[nH]nc(C(F)(F)F)c34)cc2)c1`, the GI50 in test [4] was > 10000 nM; in test [5], > 10000 nM; in test [6], > 10000 nM; in test [7], 465 nM. Also, the IC50 in test [1], in test [2] and in test [3] was > 50000 nM throughout.
As for `Cc1n[nH]c2nccc(-c3ccc(NC(=O)NC4CCCCC4)cc3)c12`, the IC50 in test [1], in test [2] and in test [3] was > 50000 nM in each case.
For the compound `Cc1n[nH]c2nccc(-c3ccc(NC(=O)NC4CC4)cc3)c12`, the IC50 in test [1] stood at 553 nM; in test [2] it was 4520 nM; in test [3], 1130 nM.
For `Cc1n[nH]c2nccc(-c3ccc(NC(=O)NCCCCc4ccccc4)cc3)c12` the same measures were 6.2 nM, 10900 nM and 135 nM.
On the same counts, the results for `Cc1ccc(N2CCOCC2)c(NC(=O)Nc2ccc(-c3ccnc4[nH]nc(C)c34)cc2)c1` are 397 nM, 26200 nM and 18900 nM.
For `Cc1n[nH]c2nccc(-c3ccc(NC(=O)NCC(C)C)cc3)c12` the same measures were 320 nM, 8630 nM and 1120 nM.
With `CCN(CC)c1cccc(NC(=O)Nc2ccc(-c3ccnc4[nH]nc(C)c34)cc2)c1`, the half-inhibitory concentration (IC50) in test [1] was 12 nM; in test [2], 42000 nM; in test [3] it was 136 nM.
For `CCCNC(=O)Nc1ccc(-c2ccnc3[nH]nc(C)c23)cc1` the same measures were 21400 nM, > 50000 nM and > 50000 nM.
`Cc1n[nH]c2nccc(-c3ccc(NC(=O)NCc4ccccc4)cc3)c12`: the IC50 is 46100 nM in test [1], > 50000 nM in test [2] and > 50000 nM in test [3].
Take `Cc1n[nH]c2nccc(-c3ccc(NC(=O)Nc4ccccc4N4CCN(C)CC4)cc3)c12`: the IC50 in test [1] came out at 4580 nM; in test [2], 4160 nM; in test [3], 928 nM.
On the same counts, the results for `Cc1n[nH]c2nccc(-c3ccc(NC(=O)NCc4ccco4)cc3)c12` are 51 nM, 3500 nM and 387 nM.
For `Cc1n[nH]c2nccc(-c3ccc(NC(=O)Nc4cccc(Cl)c4)cc3)c12` the same measures were 2400 nM, 4050 nM and 182 nM.
On to `CCCCCNC(=O)Nc1ccc(-c2ccnc3[nH]nc(C)c23)cc1`, for which the results for the IC50 in test [1], in test [2] and in test [3] were 3.5 nM, > 50000 nM and 164 nM, respectively.
For `Cc1cc(NC(=O)Nc2ccc(-c3ccnc4[nH]nc(C)c34)cc2)ccc1N1CCN(C)CC1` the same measures were 7.2 nM, 3700 nM and 127 nM.
On the same counts, the results for `Cc1n[nH]c2nccc(-c3ccc(NC(=O)Nc4cccc(CN(C)C)c4)cc3)c12` are 22100 nM, 15900 nM and 4610 nM.
`Cc1ccc(N2CCN(C)CC2)c(NC(=O)Nc2ccc(-c3ccnc4[nH]nc(C)c34)cc2)c1`: the IC50 in test [1] was found to be 1950 nM; in test [2], 3940 nM; in test [3], 1780 nM.
For `Cc1n[nH]c2nccc(-c3ccc(NC(=O)Nc4cccc(C#N)c4)cc3)c12` the same measures were 201 nM, > 50000 nM and 21400 nM.
For `CCN(CC)c1ccc(NC(=O)Nc2ccc(-c3ccnc4[nH]nc(C)c34)cc2)cc1` the same measures were 12 nM, 5350 nM and 176 nM.
Consider `CCCCCCNC(=O)Nc1ccc(-c2ccnc3[nH]nc(C)c23)cc1`, for which the GI50 was 3030 nM in test [4], 3180 nM in test [5], 1780 nM in test [6] and 10.4 nM in test [7]. For the same compound, the figures for the IC50 in test [1], in test [2] and in test [3] were 1.4 nM, 10500 nM and 27 nM, respectively.
On to `Cc1cc(N2CCN(C)CC2)ccc1NC(=O)Nc1ccc(-c2ccnc3[nH]nc(C)c23)cc1`, for which the IC50 in test [1] came out at 2220 nM; in test [2], 6820 nM; in test [3], 1100 nM.
On the same counts, the results for `Cc1n[nH]c2nccc(-c3ccc(NC(=O)NC4Cc5ccccc5C4)cc3)c12` are 8.7 nM, > 50000 nM and 83 nM.
For `Cc1n[nH]c2nccc(-c3ccc(NC(=O)NCc4ccccn4)cc3)c12` the same measures were 78 nM, 4080 nM and 472 nM.
For `Cc1n[nH]c2nccc(-c3ccc(NC(=O)Nc4cnc5ccccc5c4)cc3)c12`, the GI50 in test [4] is 83.3 nM; in test [5], 1510 nM; in test [6] it was 217 nM; in test [7], 10.4 nM. The IC50 was determined as 1.9 nM in test [1], 1840 nM in test [2] and 22 nM in test [3].
On to `CCNC(=O)Nc1ccc(-c2ccnc3[nH]nc(C)c23)cc1`, for which the results for the concentration for half-maximal inhibition (IC50) in test [1], in test [2] and in test [3] were 38700 nM, > 50000 nM and > 50000 nM, respectively.
In the case of `Cc1ccc(NC(=O)Nc2ccc(-c3ccnc4[nH]nc(C)c34)cc2)cc1`, the IC50 in test [1] was 1830 nM; in test [2] it was 5610 nM; in test [3], 65 nM.
On to `Cc1n[nH]c2nccc(-c3ccc(NC(=O)Nc4cccc(N5CCN(C)CC5)c4)cc3)c12`, for which the IC50 turned out to be 19 nM in test [1], 6240 nM in test [2] and 215 nM in test [3].
For `Cc1n[nH]c2nccc(-c3ccc(NC(=O)NCCCc4ccccc4)cc3)c12`, the GI50 in test [4] was 3020 nM; in test [5], 2050 nM; in test [6] it was 1670 nM; in test [7], 10.4 nM. In addition, the IC50 in test [1] turned out to be 1.7 nM; in test [2], 3860 nM; in test [3], 24 nM.
With `Cc1n[nH]c2nccc(-c3ccc(NC(=O)Nc4cccc(F)c4)cc3)c12`, the values for the IC50 in test [1], in test [2] and in test [3] were 4790 nM, 6230 nM and 262 nM, respectively.
On the same counts, the results for `CCc1cccc(NC(=O)Nc2ccc(-c3ccnc4[nH]nc(CO)c34)cc2)c1` are 3.7 nM, 3360 nM and 32 nM.
On to `Cc1n[nH]c2nccc(-c3ccc(NC(=O)Nc4ccc(N(C)C)cc4)cc3)c12`, for which the figures for the IC50 in test [1], in test [2] and in test [3] were 9.3 nM, 9050 nM and 309 nM, respectively.
Take `Cc1n[nH]c2nccc(-c3ccc(NC(=O)NC4CCC4)cc3)c12`: the results for the IC50 in test [1], in test [2] and in test [3] were 318 nM, 5000 nM and 732 nM, respectively.
For `Cc1n[nH]c2nccc(-c3ccc(NC(=O)Nc4cccc5ccccc45)cc3)c12` the same measures were 3.6 nM, > 50000 nM and 97 nM.
Take `CCc1cccc(NC(=O)Nc2ccc(-c3ccnc4[nH]nc(C(F)(F)F)c34)cc2)c1`: the IC50 is 6770 nM in test [1], > 50000 nM in test [2] and > 5000 nM in test [3].
On the same counts, the results for `Cc1n[nH]c2nccc(-c3ccc(NC(=O)Nc4ccn[nH]4)cc3)c12` are 120 nM, 2390 nM and 411 nM.
